Measured values: patent publication US10596160B2, “Compositions, methods and uses for the treatment of diabetes and related conditions by controlling blood glucose level” (PHARNEXT, priority 2012, dated 2020)

How the values were obtained:
[1] = tested on: beta pancreatic INS-1 cells; experiment: Prevention of beta cells apoptosis (ssDNA apoptosis detection kit); assay type: cell-based; set-up: concentration or dose not given beside the values; conditions: 1 h pre-incubation then 24 h in apoptotic conditions, drugs tested alone
Procedure: The beta pancreatic INS-1 cells have been selected for this study. The cells are cultured in complete medium, RPMI 1640 10 mM glucose supplemented with 1 mM sodium pyruvate, 50 μM 2-mercaptoethanol, 2 mM glutamine, 10 mM HEPES, 100 IU/mL penicillin, 100 μg/mL streptomycin and 10% heat-inactivated fetal calf serum (FCS), as described by Asfari et al. (23). INS-1 cells are plated (4.5×10^4 cells/well) in 96-well poly-ornithine coated plates and cultured at 37° C. in a humidified atmosphere of 95% air/5% CO2. The day after, cells are pre-incubated with the tested molecules for 1 h. Then, after a medium change, cells are cultured for 24 h in a medium containing the tested molecules and 30 mM glucose, 0.05 mM myristic acid, 25 ng/mL INF, 25 ng/mL TNF and 5 ng/mL IL.
The efficacy of compounds to prevent apoptosis is then evaluated by the highly specific apoptosis detection kit from Chemicon (Ref. APT225). This procedure is based on the detection of single-stranded DNA (ssDNA) which is a specific marker of apoptotic cells (24).
Results are expressed in optical density (OD) arbitrary unit and % of reduction of the apoptosis induced by apoptotic condition. Following a Dunnett t-test, all compounds showing a significant decrease in % of apoptotic cells compared to apoptotic control conditions are considered active.

[2] = tested on: human primary diabetic myotubes; experiment: Glucose uptake in human diabetic myotube primary cultures; assay type: cell-based; conditions: myotubes from a diabetic patient, 24 h pre-treatment
Procedure: The myotubes from a diabetic patient were grown on HAM's F10-based media (Sigma, ref. N6908) supplemented with 15% of fetal bovine serum, 1 mM glutamine.
Myoblasts were seeded at 380,000 cells/well in 12-well plates. After 2 days of proliferation, the cells were placed in reduced serum conditions (2% horse serum) to induce differentiation. The myotubes were used after 5 days of differentiation.
Dulbecco's modified Eagle's medium (DMEM)-based media (Gibco, ref. 31053-028) supplemented with 2% heat-inactivated horse serum, 2% Glutamax (Gibco, ref. 35050) and washed for glucose uptake assays. Compounds were dissolved in DMSO to reach the desired final concentration prior to use.
The differentiated myotubes were treated for 24 h with the compositions of the invention before the assay.
Before the initiation of glucose uptake, the cells were deprived of serum and glucose. A deprivation was first performed in DMEM media containing reduced glucose (1 g/L) and no serum. After adding the compounds at the desired concentrations, the cells were incubated at 37° C. during 2 h30. […] A subsequent glucose and serum deprivation was performed in HBS buffer at 37° C. for 2 hours. The cells were treated with a mixture of 2-[^3H]deoxyglucose 10 Ci/mM+2-deoxy-D-glucose at 10 μM for 30 min. […] The cell lysates were transferred into scintillation vials for the measurement of radioactivity with a MicroBeta counter.

[3] = tested on: TNFα-induced insulin resistant 3T3-L1 differentiated adipocytes; experiment: Glucose uptake in TNFα-induced insulin resistant 3T3-L1 differentiated adipocytes; assay type: cell-based; conditions: for enhancement of glucose uptake: drug alone, vs non-treated insulin-resistant cells (TNFα); for enhancement of glucose uptake, combination with metformin: ifenprodil 3.3 nM and metformin 100 μM, combined or alone at the same concentrations
Procedure: 3T3L1 fibroblasts were maintained in DMEM 4.5 g/L glucose supplemented with 5% calf serum donor, 5% newborn calf serum, 100 U/mL penicillin, and 100 μg/mL streptomycin at 37° C. under a 10% CO2 atmosphere. Cells were grown on 24-well plates at a density of 2560 cells/well in 0.5 mL of growth medium (DMEM 4.5 g/L glucose supplemented with 10% FCS, 100 U/mL penicillin, and 100 μg/mL streptomycin). […] Fresh media were replaced after two days.
Glucose uptake was measured by quantification of incorporated radiolabeled glucose, after an incubation step with 2-deoxy-D[1,2^3H] glucose for 5 min. Glucose uptake was arrested by two washing steps in ice-cold PBS 1×, then were solubilized in 0.1N NaOH for 30 min. Cell-associated radioactivity was then counted using a MicroBeta counter after adding 600 μL per well of scintillant (Optiphase SuperMix3).
In parallel, protein quantification was determined by a colorimetric assay derived from the Lowry method. Results are expressed in nmol of glucose incorporated/5 mn/mg of protein and in % of control or basal condition (100%).

[4] = tested on: hepatocytes; experiment: Glucose production by hepatic cells; assay type: cell-based, rat; conditions: long-term, 0.01 μM (10 nM)
Procedure: Hepatocytes are isolated from 24 h-fasted male Wistar rats (200-250 g body weight) by ex situ liver perfusion in the presence of collagenase. Cell viability is validated by a trypan blue exclusion test. […] After plating, the medium is removed and cells are cultured for 16 h in RPMI medium without glucose (supplemented with the tested drugs for long-term evaluation). The following day, hepatic glucose production is assessed in Krebs-Ringer Bicarbonate HEPES buffer (KRBH; pH 7.4) in the presence of the neoglucogenic substrates (lactate 10 mM and pyruvate 1 mM) and the tested molecules for 4 h (short-term).
Supernatants are collected and glucose concentrations are determined using a glucose oxidase kit (Instrumentation Laboratory 0018250840). In parallel, protein quantification is performed using the colorimetric Lowry method.
Results are expressed in nmol glucose/mg protein and % of control condition (KLP: KRBH containing lactate and pyruvate).

For `CC(C(O)c1ccc(O)cc1)N1CCC(Cc2ccccc2)CC1` (stereo not shown) [ifenprodil], the “Percentage of apoptosis reduction” value [1] was 54%, the “enhancement of glucose uptake” value ([2]; 0.1 μM) was “improvement” and the “enhancement of glucose uptake” value ([2]; 1 μM) was “improvement”. For the same molecule, the “enhancement of glucose uptake” value ([3]; 10 nM) was “improvement”, the “enhancement of glucose uptake” value ([3]; 100 nM) was “improvement” and the “enhancement of glucose uptake” value ([3]; 1 μM) was “+140%”. For the same molecule, the “enhancement of glucose uptake, combination experiment” value ([3]; drugs combined at a dose as low as 3.3 nM, or used individually, vs TNFα cells, Dunnett's test) was “No significant effect”, the “enhancement of glucose uptake, combination with metformin” value ([3]; vs TNFα cells) was “No significant effect” and the “enhancement of glucose uptake, combination with metformin” value ([3]; vs TNFα cells, listed as Ifenprodil) was “does not lead to any significant improvement”. For the same molecule, the “reduction of glucose production” value [4] was −22%.
